From ChEMBL document CHEMBL1201862, “PubChem BioAssay data set” (2004) come the findings set out here.

Some test systems named below: KM12; HL-60; Hs-578T; UO-31; RXF 393; MCF7; OVCAR-3; IGROV-1; HOP-92; UACC-62; SN12C; HOP-62; OVCAR-5; EKVX; SK-MEL-5; DU-145; LOX IMVI; HCT-116.
Common to all, as to assay: DTP human tumour cell line panel, 48 h

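Compound exposure: 48 hours, 5 concentrations, 96-well plates. GI50 is the concentration that inhibits growth by half.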 The source made the active and inactive calls. Rule as the data show it: active = GI50 up to about 1.1 µM and inactive = higher.

`COc1cc(CCCl)c(CC2=NCCc3cc(OC)c(OC)cc32)cc1OC`: the GI50 is 71.1 µM (inactive) in the assay on KM12; 4.41 µM (inactive) in the assay on HL-60; 14.9 µM (inactive) in the assay on Hs-578T; 69.3 µM (inactive) in the assay with UO-31; 32.3 µM (inactive) in the assay with RXF 393; 88.9 µM (inactive) in the assay with MCF7. For the same compound, the GI50 was > 100 µM (inactive) in the assay on OVCAR-3; 29.4 µM (inactive) in the assay on IGROV-1; > 100 µM (inactive) in the assay on HOP-92; 43.3 µM (inactive) in the assay with UACC-62; 80.9 µM (inactive) in the assay with SN12C; 20.8 µM (inactive) in the assay with HOP-62. Besides, the GI50 is > 100 µM (inactive) with OVCAR-5; 88.9 µM (inactive) with EKVX; 67.8 µM (inactive) in the assay with SK-MEL-5; > 100 µM (inactive) with DU-145; 21.1 µM (inactive) in the assay on LOX IMVI; 24.4 µM (inactive) in the assay with HCT-116.

For `CN(CCCCCl)P(=O)(OCC1=CC(=O)c2ccccc2C1=O)OC[C@H]1O[C@@H](n2cc(F)c(=O)[nH]c2=O)C[C@@H]1O` (some centres not stated), the GI50 in the assay on KM12 is 3.64 µM (inactive); in the assay with HL-60, 0.69 µM (active); in the assay with Hs-578T, < 0.01 µM (active); in the assay on UO-31 it was < 0.01 µM (active); in the assay on RXF 393, 0.0625 µM (active); in the assay on MCF7, < 0.01 µM (active). Besides, the GI50 in the assay on OVCAR-3 is 0.109 µM (active); in the assay with IGROV-1, 0.124 µM (active); with HOP-92, < 0.0285 µM (active); in the assay on UACC-62 it was 0.0399 µM (active); with SN12C, < 0.0323 µM (active); in the assay on HOP-62 it was 0.0415 µM (active). For the same compound, the GI50 in the assay on OVCAR-5 is 4.38 µM (inactive); in the assay on EKVX, 3.18 µM (inactive); in the assay with SK-MEL-5, 0.0334 µM (active); with DU-145 it was 0.052 µM (active); in the assay on LOX IMVI, < 0.01 µM (active); in the assay with HCT-116, 0.0693 µM (active).

Consider `O=C(N/N=C/C=C/c1ccc([N+](=O)[O-])o1)c1ccc(Br)s1`, for which the GI50 was 17.8 µM (inactive) in the assay with KM12; 34.1 µM (inactive) in the assay on HL-60; 6.73 µM (inactive) in the assay on Hs-578T; 21 µM (inactive) in the assay with UO-31; 15.6 µM (inactive) in the assay with RXF 393; 16.3 µM (inactive) with MCF7. Further, the GI50 with OVCAR-3 was 16.1 µM (inactive); in the assay on IGROV-1, 6.76 µM (inactive); with HOP-92, 10.8 µM (inactive); in the assay on UACC-62, 23.2 µM (inactive); with SN12C, 29.6 µM (inactive); with HOP-62, 51.2 µM (inactive). In addition, the GI50 in the assay with OVCAR-5 was 26.3 µM (inactive); with EKVX it was 31.2 µM (inactive); in the assay with SK-MEL-5 it was 18.6 µM (inactive); in the assay on DU-145, 30.3 µM (inactive); in the assay on LOX IMVI, 19.9 µM (inactive); in the assay with HCT-116, 3.48 µM (inactive).

On to `O=C1Cc2c(-c3ccccc3)cc(-c3cccc(Cl)c3)nc2-c2ccccc2N1`, for which the GI50 was 5.02 µM (inactive) in the assay on KM12; 38.7 µM (inactive) with HL-60; 2.09 µM (inactive) in the assay with Hs-578T; 3.14 µM (inactive) in the assay on UO-31; 2.15 µM (inactive) in the assay on RXF 393; 2.22 µM (inactive) in the assay with MCF7. The GI50 in the assay on OVCAR-3 is 2.1 µM (inactive); with IGROV-1, 1.2 µM (inactive); with HOP-92 it was 1.34 µM (inactive); in the assay on UACC-62, 3.03 µM (inactive); in the assay on SN12C it was 1.26 µM (inactive); in the assay on HOP-62 it was 1.38 µM (inactive). Further, the GI50 is 6.19 µM (inactive) in the assay with OVCAR-5; 2.29 µM (inactive) in the assay on EKVX; 9.91 µM (inactive) in the assay with SK-MEL-5; 2.61 µM (inactive) in the assay with DU-145; 2.04 µM (inactive) with LOX IMVI; 1.6 µM (inactive) in the assay with HCT-116.

Broadly, the GI50 is the concentration at which growth is held to half of that of the control.
